Reference: patent US12725802B2, “Aqueous rechargeable battery including organic positive active material” (Seoul National University R&DB Foundation, priority 2021, dated 2026)
Converted amounts (≈) assume the structure as drawn. Where two headings read alike, the source gives them in different places.

What was measured:
[1] = Visual observation of the solubility of DMPZ in various solvents (color change, naked eye); type: physicochemical; settings: FIG. 3; for solubility: organic solvent or mixture, read-out: solubility (concentration dissolved)
Source text: DMPZ was respectively dissolved in various solvents, and color changes in the solutions were examined with the naked eye to evaluate dissolution degrees.

[2] = Analysis of solubility of positive active material in the electrolyte during cycle (electrode washed with new electrolyte, color; UV-visible spectroscopy); type: physicochemical; settings: FIG. 7
Experimental: Each cell of Comparative Example 1 and Examples 1 and 2 was checked regarding how much the positive active materials were dissolved when the electrodes were taken out during the charge and washed with a new electrolyte, and the results are shown in FIG. 7.
FIG. 8 is a graph quantitatively analyzing amounts of DMPZ dissolved in each electrolyte of Comparative Example 1 and Examples 1 and 2. The cycled DMPZ electrode was re-wetted in the electrolyte, and ultraviolet (UV)-visible ray spectroscopy was performed with respect to solutions in each of the DMPZ^+ and DMPZ^2+ states to measure areas of an absorption spectrum and thus obtain each amount of DMPZ^+ and DMPZ^2+ dissolved out in the electrolyte. In FIG. 8, a vertical axis indicates the DMPZ state according to SOC, while a horizontal axis indicates a weight change as solubility (%). In FIG. 8, Comparative Example 1 is shown on the right, Example 1 is in the middle, and Example 2 is on the left.

CN1c2ccccc2N(C)c2ccccc21 [DMPZ, 5,10-dihydro-5,10-dimethylphenazine]
solubility ([1]; dimethyl carbonate (DMC)): ≥ 100 mM | solubility ([1]; propylene carbonate (PC)): ~20 mM (≈ 4.21 mg/mL) | solubility ([1]; tetraethylene glycol dimethyl ether (TEGDME)): ≥ 100 mM | solubility (dissolution) ([1]; water solvent): not dissolved in the water solvent at all | solubility in the electrolyte during the cycles ([2]; Comparative Example 1 electrolyte: 1 M NaClO4 in TEGDME, DMPZ, DMPZ+ (SOC 50) and DMPZ2+ (SOC 100)): high solubility | solubility in the electrolyte during the cycles ([2]; Example 1 electrolyte: 1 m NaClO4 and 0.5 m Zn(CF3SO3)2 in water, charged DMPZ (DMPZ+, DMPZ2+)): slightly dissolved | solubility in the electrolyte during the cycles ([2]; Example 2 electrolyte: 17 m NaClO4 and 0.5 m Zn(CF3SO3)2 in water, DMPZ, DMPZ+ and DMPZ2+): not dissolved at all
